Reference: US20130295150A1, “ELECTRICITY-GENERATING PARTICULATES AND THE USE THEREOF” (Johnson & Johnson Consumer Companies, Inc., priority 2007, published 2013)

Tests used:
Type in all cases: cell-based
C. albicans [1] = assay: Agar disc microwell assay, log reduction by plate count; conditions: about 6 log CFU in saline, 37° C., 200 rpm
Procedure: (§1) Agar discs containing copper-zinc galvanic particulates from Example 1(a) or zinc acetate at a concentration of 0.1%, 0.5%, or 1% were exposed to about 6 log CFU of MRSA or C. albicans in saline in microwell plate and incubated at 37° C. and 200 rpm for 24 hrs. Plate count was performed to enumerate the viable microorganisms after the incubation. Log reduction was defined as the log difference of the inoculum before and after the incubation with the test articles (e.g., a log reduction of 6 for the inoculum of 6 log means all the inoculum were killed, and a log reduction of 3 for the inoculum of 6 log means […] of the inoculum were killed).
(§2) Agar discs containing 0.1% copper coated zinc galvanic particulates from Example 1(a) or zinc acetate at 1% or copper acetate at 0.1% were exposed to about 6 log CFU of MRSA or C. albicans in saline in microwell plates, and incubated at 37° C., 200 rpm for 24 hr.
(§3) Plate count was performed to enumerate the viable microorganisms after the incubation. Log reduction was defined as the log difference of the inoculum before and after the incubation with the test articles.

MRSA [2] = assay: as above; conditions: about 6 log CFU in saline, 37° C., 200 rpm
Procedure: as §1, §2, §3

C. albicans [3] = assay: Zone of inhibition testing versus copper acetate and zinc acetate; conditions: about 6 log CFU, 37° C., 24 hr
Procedure: (§4) Zone of inhibition testing was performed on agar discs containing copper-zinc galvanic particulates from Example 1(a) at 0.5%, Zn acetate at 0.5%, and Cu acetate at 0.1%. The discs were placed on TSA agar surface, inoculated with about 6 log CFU of MRSA or C. albicans, and incubated at 37° C. for 24 hr.

MRSA [4] = assay: as above; conditions: about 6 log CFU, 37° C., 24 hr
Procedure: as §4

[5] = test system: Human T-cells stimulated with PHA; assay: Human T-cell cytokine release stimulated with PHA; conditions: 100 ug/ml, 10 μg/mL PHA, 48-hour incubation; for Cytokine Release Percent (%) Reduction: IL-2
Procedure: Human T-cells were collected from a healthy adult […] via leukopheresis. The T-cells were isolated from peripheral blood via Ficol gradient, and the cells were adjusted to a density of 1×10^6 cells/mL in serum free lymphocyte growth medium (ExVivo-15, Biowhittaker, Walkersville, Md.). Human T-cells were stimulated with 10 μg/mL PHA in the presence or absence of test compounds following published method (Hamamoto Y., et al. Exp Dermatol 2:231-235, 1993). Following a 48-hour incubation at 37° C. with 5% CO2, supernatant was removed and evaluated for cytokine content using commercially available multiplex cytokine detection kit.

Human keratinocyte cells = assay: Stimulation of hydrogen peroxide production, CM-H2DCFDA fluorescence; conditions: 0.03% positive control
Procedure: Human keratinocyte cells were seeded in assay plates at identical densities and incubated for 48 hours at 37° C. with 5% CO2. […] Cells were treated with galvanic particulates or zinc or copper metal powders alone over increasing amounts of time. Treatment of control wells with 0.03% hydrogen peroxide served as a positive control. Hydrogen peroxide production was quantitated using a fluorescent plate reader set at wavelengths 485 excitation/530 emission. The results are depicted in Tables 17 and 18.

C. albicans [6] = assay: Sustained efficacy, zone of inhibition on day 1 and after transfer to new plate on day 2; conditions: 1% in agar disc
Procedure: (§5) Agars discs containing either galvanic particulates as described in Example 1(a) or zinc acetate at 1% were placed on TSA agar surface inoculated with about 6 log CFU of MRSA or C. albicans and incubated at 37° C. for 24 hr (day-1).

MRSA [7] = assay: as above; conditions: 1% in agar disc
Procedure: as §5

[8] = Table 4, 0.1% in agar disc, 24 hr
[9] = Table 2, test material 0.10% in agar disc, 24 hrs
[10] = Table 2, test material 0.50% in agar disc, 24 hrs
[11] = Table 2, test material 1.00% in agar disc, 24 hrs
[12] = Table 4, 1% in agar disc, 24 hr
[13] = same disc moved to newly inoculated TSA plate, 24 hr (day-2)

Compound: copper acetate
- LOG REDUCTION C. albicans (C. albicans [1]; [8]): 0.3
- LOG REDUCTION MRSA (MRSA [2]; [8]): 0.2
- zone of inhibition (C. albicans [3]; 0.1% in agar disc on TSA agar): did not show any visible zone of inhibition
- zone of inhibition (MRSA [4]; 0.1% in agar disc on TSA agar): did not show any visible zone of inhibition
- Cytokine Release IL-2 [5]: 312.9 ± 96.8 pmol/mL
- Cytokine Release Percent (%) Reduction [5]: 44.4%

Compound: C[C@]12CCC(=O)C=C1CC[C@@H]1[C@@H]2[C@@H](O)C[C@@]2(C)[C@H]1CC[C@]2(O)C(=O)CO [Hydrocortisone]
- Cytokine Release IL-2 [5]: 7.69 ± 5.64 pmol/mL
- Cytokine Release Percent (%) Reduction [5]: 98.6%

Compound: OO [Example H2O2, hydrogen peroxide]
- Hydrogen peroxide production (fluorescence), 30 Minutes (Human keratinocyte cells): 416.6 ± 61.3
- Hydrogen peroxide production (fluorescence), 60 Minutes (Human keratinocyte cells): 591.4 ± 82.7
- Hydrogen peroxide production (fluorescence), 200 Minutes (Human keratinocyte cells): 1117.5 ± 153.8
- Hydrogen peroxide production (fluorescence), 240 Minutes (Human keratinocyte cells): 1214.8 ± 149.7
- Hydrogen peroxide production (fluorescence), Baseline (Human keratinocyte cells): 98.1 ± 4.4

Compound: [Cl-].[Cl-].[Zn+2] [Zinc Chloride]
- Cytokine Release IL-2 [5]: 566.3 ± 20.6 pmol/mL
- Cytokine Release Percent (%) Reduction [5]: −0.6%

Compound: CC(=O)[O-].CC(=O)[O-].[Zn+2] [Zinc Acetate, zinc acetate]
- LOG REDUCTION C. albicans (C. albicans [1]; [9]): 2.2
- LOG REDUCTION C. albicans (C. albicans [1]; [10]): 2.9
- LOG REDUCTION C. albicans (C. albicans [1]; [11]): 4.7
- LOG REDUCTION C. albicans (C. albicans [1]; [12]): 4.7
- LOG REDUCTION MRSA (MRSA [2]; [9]): 1.7
- LOG REDUCTION MRSA (MRSA [2]; [10]): 3.2
- LOG REDUCTION MRSA (MRSA [2]; [11]): 5.1
- LOG REDUCTION MRSA (MRSA [2]; [12]): 5.1
- zone of inhibition (C. albicans [3]; 0.5% in agar disc on TSA agar): smaller zone of inhibition, approximately one half the radius
- zone of inhibition (MRSA [4]; 0.5% in agar disc on TSA agar): smaller zone of inhibition, approximately one half the radius
- zone of inhibition, day 1 (C. albicans [6]; 37° C., 24 hr (day-1)): produce a zone of inhibition
- zone of inhibition, day 2 (C. albicans [6]; [13]): did not show any inhibition
- zone of inhibition, day 1 (MRSA [7]; 37° C., 24 hr (day-1)): produce a zone of inhibition
- zone of inhibition, day 2 (MRSA [7]; [13]): did not show any inhibition
